Legend:
[1] = molecular target: T1, Piezo1Rs (Homo sapiens, UniProt Q92508); assay: Calcium imaging of Yoda1-evoked Ca2+ transients in SV-40 immortalized human microglia cell line; format: cell-based; settings: control SV-40 cells, n=13
T1 construct: SV-40 immortalized human microglia cell line which endogenously express Piezo-1 and Piezo2Rs was used; endogenous in cells; host or cells: SV-40 immortalized human microglia cell line
Experimental: To study the calcium influx evoked by native Piezo1 Rs expressed in microglia cells the present inventors used short Yoda1 applications (2 s, 50 μM if not otherwise specified). For this purpose, human IPSO derived microglia cells and SV-40 (immortalized human microglia) cells were seeded on 7 mm cover slips 1 day prior to the imaging experiment. Cells were loaded with the calcium-sensitive fluorescent dye Fluo-4AM (5 μM) for 30 min at 37° C. Followed by wash-incubation for 15 min in Ab 20 μM, 50 μM GdCI and basic solution (BS) as a control at 37° C. The basic solution containing the following (BS, in mM): 2.5 KCl, 152 NaCl, 10 glucose, 2 CaCl2, and 10 HEPES at pH 7.4. Fluorescence was visualized using monochromatic light source (TILL Photonics GmbH) using Ex/Im 494/[…] and a CCD camera (SensiCam). […] To quantify the difference in the amplitude of calcium transients, the ratio values were normalized by subtracting a baseline and further divided by the amplitude of the calcium transient to the 2 sec application of the ionomycin. Data were pre-analyzed offline using the FEI offline analysis (TILL Photonics), and further analysis was automatized using MatLab. Quantitative data were expressed as means±SEM unless otherwise stated. […] Significance assessed with the ANOVA test or Mann-Whitney t test for non-parametric data. […]

[2] = tested on: hIPSC-derived microglia; assay: Cytokine measurement (cytokine bead assay) in LPS-treated iPSC-derived microglia; format: cell-based, human; settings: Yoda1 20 μM (Y20), n=4 per group
Experimental: Cytokine measurement. The impact of Piezo1Rs effect on the capacity of the iPSC derived microglia to release cytokines was evaluated using cytokine bead assay (CBA, PD Pharmingen)). Shortly, prior to the experiment IPSCs were plated in 24-well plate at 70,000 cells/cm^2 and cultured for 48 hours. […] Next, media were collected, centrifuged to remove any cell debris, and the supernatant was frozen at −70° C. Cytokines were analyzed with cytometric bead array mouse inflammation kit (BD Biosciences) according to manufacturer's instructions.

[3] = tested on: hiPSC-microglia; assay: Cytotoxicity assay (Cytotox Green, Incucyte S3); format: cell-based; settings: 2-20 μM Yoda1, 60-hour time point, n=3 experiments
Experimental: Cytotoxicity assay. The cytotoxicity of in vitro cultures was assessed with Cytotox Green assay (Essen Bioscience) using Incucyte S3 Live-Cell Analysis System (Essen Bioscience, Ann Arbor, Mich., USA, #4647). Microglia were seeded for the assay at density of 15 000 cells per well on poly-D-lysine (PDL, Sigma, #P0899) coated Nunclon (Thermo Scientific, #167008) or ImageLock 96-well plates (Essen Bioscience, #4379). On the assay day, cells were treated with 0.1-20 μM Yoda1 (Tocris, #5586) in PM medium supplemented with 250 nM Cytotox Green reagent (Essen Bioscience, #4633). Equal volume of DMSO (Sigma, #D2650) was used as a vehicle and 200 μM MPP+(Sigma, #D048) was applied as a positive control. Cells were live-imaged in IncuCyte S3 at 37° C. and 5% CO2 every 3 hours for 3 days to obtain cell death over time. One to two 10× images per well were captured using the phase-contrast mode to obtain confluency and the green fluorescence mode to obtain fluorescent intensity. Quantification was performed using IncuCyte S3 Software (2019B). Green fluorescence was separated from background with a top-hat thresholding and all settings were kept constant between different conditions. […]

[4] = tested on: primary cortical neurons; assay: Measurement of neurite outgrowth in primary cortical neurons; format: cell-based, mouse; settings: 5 μM Yoda1, imaging over 150 hours, versus vehicle
Experimental: Measurement of neurite outgrowth in primary cortical neurons. Primary cortical neuron cultures were prepared from mouse embryos of embryonic day 15. The cortices were dissected, and tissue dissociated with 0.0125% trypsin (for 15 min at 37° C., Sigma-Aldrich, St. Louis, Mo., USA). After trypsin inactivation and washing the cells were counted and plated on 48-well-plates (coated with poly-D-lysine, Sigma-Aldrich, St. Louis, Mo., USA) at a density of 125 000 cells/well or on 6-well-plates at a density of 1.8 million cells/well in Neurobasal media supplemented with 2% B27 and 500 μM L-glutamine (all ThermoFisher Scientific, Waltham, Mass., USA) and 10 μg/ml of gentamicin (Sigma Aldrich, St. Louis, Mo., USA). On day 3 or 5 in vitro (DIV) the neurons were fed by changing 50% of media. The neurons were placed in IncuCyte® S3 Live Cell Analysis System (Essen
BioScience Ltd., Hertfordshire, UK) on DIV 0 and treated with 5 μM Yoda1 (Tocris, Bio-Techne Ltd., Abingdon, Oxfordshire, UK) once on DIV 0 or daily until DIV 7, and images were taken every 8 hours for the analysis of neurite length and branch points.

T1 sequence (Q92508 whole entry): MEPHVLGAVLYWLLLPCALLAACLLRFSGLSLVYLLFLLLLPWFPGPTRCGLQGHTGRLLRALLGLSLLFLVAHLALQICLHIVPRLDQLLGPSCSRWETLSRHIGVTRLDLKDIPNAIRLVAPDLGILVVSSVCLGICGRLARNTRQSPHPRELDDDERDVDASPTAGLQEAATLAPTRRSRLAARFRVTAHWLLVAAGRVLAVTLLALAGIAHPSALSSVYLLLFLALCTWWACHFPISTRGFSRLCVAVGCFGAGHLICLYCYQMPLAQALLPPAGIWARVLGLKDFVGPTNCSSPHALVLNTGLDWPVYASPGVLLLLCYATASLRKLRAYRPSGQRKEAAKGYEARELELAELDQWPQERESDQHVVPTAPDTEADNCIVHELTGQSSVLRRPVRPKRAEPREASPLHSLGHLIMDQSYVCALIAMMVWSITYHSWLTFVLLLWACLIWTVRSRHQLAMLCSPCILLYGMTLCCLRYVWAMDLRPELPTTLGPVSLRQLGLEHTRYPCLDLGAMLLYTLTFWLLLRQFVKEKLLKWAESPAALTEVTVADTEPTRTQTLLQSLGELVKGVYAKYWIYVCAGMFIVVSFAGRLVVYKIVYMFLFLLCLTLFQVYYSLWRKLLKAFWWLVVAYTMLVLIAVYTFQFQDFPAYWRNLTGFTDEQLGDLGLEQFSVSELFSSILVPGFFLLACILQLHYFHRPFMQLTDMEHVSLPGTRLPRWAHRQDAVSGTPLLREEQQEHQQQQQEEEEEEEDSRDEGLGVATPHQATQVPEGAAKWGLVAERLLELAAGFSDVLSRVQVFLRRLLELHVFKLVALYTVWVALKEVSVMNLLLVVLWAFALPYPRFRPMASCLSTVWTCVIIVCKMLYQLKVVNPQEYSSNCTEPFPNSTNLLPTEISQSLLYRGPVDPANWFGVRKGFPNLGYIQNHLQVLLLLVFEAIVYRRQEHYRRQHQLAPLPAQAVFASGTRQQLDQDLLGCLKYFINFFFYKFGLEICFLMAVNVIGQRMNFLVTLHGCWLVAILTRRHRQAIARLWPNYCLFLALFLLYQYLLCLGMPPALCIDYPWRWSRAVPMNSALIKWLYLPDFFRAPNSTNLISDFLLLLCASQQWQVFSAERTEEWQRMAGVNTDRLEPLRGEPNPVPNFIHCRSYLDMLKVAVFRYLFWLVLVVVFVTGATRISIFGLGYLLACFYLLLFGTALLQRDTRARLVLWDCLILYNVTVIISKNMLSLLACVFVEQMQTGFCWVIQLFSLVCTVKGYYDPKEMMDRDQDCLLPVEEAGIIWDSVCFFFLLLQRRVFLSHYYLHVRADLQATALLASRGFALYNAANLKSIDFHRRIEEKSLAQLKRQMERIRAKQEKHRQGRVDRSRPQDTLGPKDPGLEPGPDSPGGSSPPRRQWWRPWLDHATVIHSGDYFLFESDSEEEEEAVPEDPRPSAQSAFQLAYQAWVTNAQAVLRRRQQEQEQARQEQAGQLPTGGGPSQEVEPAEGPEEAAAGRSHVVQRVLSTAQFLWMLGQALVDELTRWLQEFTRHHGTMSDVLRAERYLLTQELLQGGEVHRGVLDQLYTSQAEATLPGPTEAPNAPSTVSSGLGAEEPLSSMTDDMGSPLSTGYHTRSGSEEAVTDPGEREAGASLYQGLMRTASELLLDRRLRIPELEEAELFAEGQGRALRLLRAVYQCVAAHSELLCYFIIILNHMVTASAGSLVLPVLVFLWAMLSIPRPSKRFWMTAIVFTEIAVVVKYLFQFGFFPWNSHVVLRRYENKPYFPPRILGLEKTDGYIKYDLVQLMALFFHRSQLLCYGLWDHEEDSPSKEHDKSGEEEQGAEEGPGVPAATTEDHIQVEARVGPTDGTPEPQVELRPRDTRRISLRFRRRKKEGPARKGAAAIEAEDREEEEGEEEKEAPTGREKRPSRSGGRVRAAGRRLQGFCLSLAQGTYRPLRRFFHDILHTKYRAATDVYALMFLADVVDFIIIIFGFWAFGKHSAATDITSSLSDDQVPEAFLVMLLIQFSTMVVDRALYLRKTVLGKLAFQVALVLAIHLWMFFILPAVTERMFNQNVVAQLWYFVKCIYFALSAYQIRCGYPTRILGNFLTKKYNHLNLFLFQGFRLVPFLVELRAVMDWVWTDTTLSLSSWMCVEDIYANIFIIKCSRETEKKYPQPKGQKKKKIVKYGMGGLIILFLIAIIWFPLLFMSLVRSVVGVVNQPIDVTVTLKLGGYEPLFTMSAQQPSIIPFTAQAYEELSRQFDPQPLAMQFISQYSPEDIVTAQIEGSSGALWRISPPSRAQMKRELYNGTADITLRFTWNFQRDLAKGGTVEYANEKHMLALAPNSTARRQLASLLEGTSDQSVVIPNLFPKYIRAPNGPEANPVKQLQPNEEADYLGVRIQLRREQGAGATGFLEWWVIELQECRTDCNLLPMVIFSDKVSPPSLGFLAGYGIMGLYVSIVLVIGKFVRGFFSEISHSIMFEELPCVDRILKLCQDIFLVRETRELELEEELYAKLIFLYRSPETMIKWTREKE

SMILES: Clc1cccc(Cl)c1CSc1nnc(-c2cnccn2)s1 [Yoda1]
- Yoda1 activated Ca2+ transients, amplitude normalized to ionomycin [1]: 0.82±0.14
- secretion of anti-inflammatory IL-10 ([2]; LPS): increases the secretion
- LPS induced secretion of pro-inflammatory IL-6 [2]: prevented the LPS induced secretion
- LPS induced secretion of pro-inflammatory IL-8 [2]: prevented the LPS induced secretion
- LPS induced secretion of pro-inflammatory MCP1 [2]: prevented the LPS induced secretion
- microglial cell death (cytotoxicity dye uptake) [3]: protects hiPSC-microglia from cell death
- branch points of neurites [4]: more branching points
- neurite length [4]: extended neurite length
